Patent US10449247B2, “Compositions and methods for enhancing immune response” (priority 2007, dated 2019)

Experiments:
Assay type in all cases: cell-based, Human
THP-1 cells [1] = assay: Vybrant phagocytosis assay (fluorescein-labeled E. coli particles), THP-1 cells
Experimental: Human THP-1 monocytoid cells (acute monocytic leukemia) were obtained from American Type Tissue Collection (#TIB-202). Cells were cultured in RPMI-1640 medium supplemented with 2 mM L-glutamine, 10 mM HEPES, 1.0 mM sodium pyruvate, 10% fetal bovine serum and antibiotics. Primary peripheral blood monocytes (PBM) were isolated from mixed peripheral blood mononuclear cell preparations using the Miltenyi Biotec MACs magnetic separation system. PBM were cultured in the same medium as THP-1 cells, with the exception that 20% fetal bovine serum was used. Cells were seeded (1×10^5 cells/well, 96-well culture plates) 24 h prior to treatment with OxBC, PMA (25 ng/ml) and/or LPS (15 ng/ml) as described below. Cells incubated in an equivalent percentage (v/v) of DMSO alone served as controls.
Phagocytosis in monocyte cultures was evaluated using a Vybrant phagocytosis assay kit (Invitrogen, #V6694) based upon the ingestion of fluorescein-labeled E. coli (strain K12) bacterial particles. Briefly, treated cells were incubated at 37° C. for 5 h with a 1000 suspension of fluorescent bioparticles in Hank's buffered salt solution. […] The trypan blue solution was removed and the number of ingested particles determined using a fluorescence microplate reader (480 nm excitation, 520 nm emission). […] After recovery, the cells were treated with LPS for an 24 h before phagocytosis was measured.

THP-1 cells [2] = assay: Cytokine release ELISA, naive THP-1 cells treated directly
Experimental: Human THP-1 monocytoid cells (acute monocytic leukemia) were obtained from American Type Tissue Collection (#TIB-202). Cells were cultured in RPMI-1640 medium supplemented with 2 mM L-glutamine, 10 mM HEPES, 1.0 mM sodium pyruvate, 10% fetal bovine serum and antibiotics. Peripheral blood monocytes (PBM) and lymphocytes (PBL) were isolated from PBMC by positive and negative selection, respectively, using the Miltenyi Biotec MACs magnetic separation system. PBM were cultured in RPMI-1640 medium supplemented with 2 mM L-glutamine, 10 mM HEPES, 1.0 mM sodium pyruvate, 20% fetal bovine serum and antibiotics. PBL were seeded in the same medium with the exception that 10% FBS was used. Specific cell densities and experimental conditions are described below.
Cells were evaluated in both naïve challenge and LPS challenge models. For naive studies, cells were exposed directly to OxBC for varying time frames and cytokine expression evaluated in conditioned medium (CM) by ELISA. For LPS challenge, cells were first incubated with OxBC for the indicated time, at which point OxBC was removed and replaced with fresh medium lacking the compound. At different time points post-treatment, cells were then challenged with LPS (15 ng/ml) for 24 h prior to cytokine levels in CM being evaluated by ELISA. In a variation of the LPS challenge scenario, primary PBM were first challenged with LPS for 24 h. After this initial stimulation, LPS-treated cells were then exposed to OxBC for 24 h before CM was harvested for ELISA analysis.
Analysis of cytokine levels in CM was performed using Endogen Human ELISA kits (Pierce) according to manufacturer's instructions. CM was prepared by centrifugation to remove cellular debris and either used neat, diluted with complete medium or concentrated using Nanosep 3K centrifugal concentrators (Pall) to ensure that cytokine levels fell within the linear ranges of each assay. Where appropriate, samples were stored at −80° C. and thawed by gradual equilibration at room temperature prior to use. Briefly, 50 μl samples were added to each well of a microplate to which antibody specific to the cytokine of interest had been adsorbed and incubated at room temperature for 1-3 h. Plates were washed three times to remove nonspecifically bound material and incubated for an additional 1-3 h with biotinylated antibody specific to the cytokine of interest. After washing, plates were incubated for 30 min with steptavidin-horse radish peroxidase reagent followed by an additional washing cycle. Washed plates were incubated for 30 min with 3,3′,5,5′-tetramethylbenzidine (TMB) substrate, the reaction stopped and absorbance measured at 450 nm (550 nm reference). Reference curves were generated for each cytokine using the supplied recombinant standard.
A primary proof-of-principle study was conducted in THP-1 cells that were untreated (mock) or treated for 24 h with OxBC, PMA (25 ng/ml) and vehicle (DMSO). […] Moreover, no change in MCP-1 and IL-8 expression was detected at lower concentrations of the compound. Both MCP-1 and IL-8 function as cytokines to recruit immune cells to sites of infection or injury. For example, IL-8 primarily recruits neutrophils within an inflammatory response and is also termed neutrophils recruitment factor (NRF), while MCP-1 primarily functions to recruit other monocytes. Expression of either cytokine by monocytes/macrophages is induced in response to detection of antigen or phagocytosis of an invading pathogen.

THP-1 cells [3] = assay: FACS analysis of surface receptor expression in THP-1 cells (no LPS)
Experimental: Human THP-1 monocytoid cells (acute monocytic leukemia) were obtained from American Type Tissue Collection (#TIB-202). Cells were cultured in RPMI-1640 medium supplemented with 2 mM L-glutamine, 10 mM HEPES, 1.0 mM sodium pyruvate, 10% fetal bovine serum and antibiotics. Cells were seeded (5×10^5 cells/well, 6-well culture plates) 24 h prior to treatment with OxBC and harvested for analysis according to three protocols: 1) Cells were treated with OxBC (2.5, 7.5 or 12.5 μM) for 24 h and than evaluated for surface receptor expression; 2) Cells were treated with OxBC (0.1, 0.5 or 1.0 μM) for 24 h, at which point fresh media lacking OxBC was supplied for 48 h prior to analysis, and 3) Cells were treated with OxBC (0.1, 0.5 or 1.0 μM) for 24 h, at which point fresh media lacking OxBC was supplied for 5 days. Treated cells were then stimulated with LPS (15 ng/ml) for 24 h prior to analysis. Cells incubated in an equivalent percentage (v/v) of DMSO alone served as controls. For studies in which LPS stimulation was not employed, PMA 25 ng/ml) was used as positive stimulator of monocytes differentiation.
Phycoerythrin (PE)-labeled primary antibodies against human CD11b, CD14, CD16, CD36, CD51/CD61, HLA (broad isoforms), HLA-B7, CD86, CD40, CD40L and CD3 were obtained from AbCam. Receptor expression was evaluated using direct immunofluorescence labeling and flow cytometry analysis. Briefly, triplicate cell aliquots in cold buffer (PBS containing 10% FBS and 1% sodium azide) were incubated with primary antibody (10-20 μl) for 45 min at room temperature under low light conditions. Cells were washed three times and resuspended in 500 μl of buffer for analysis using a FacsAria cell sorter. Unlabeled cells and cells labeled with antibody alone served as controls.

[4] = THP-1, 24 h, PMA 25 ng/ml, proof-of-principle

CCCCCCCCCCCCCC(=O)O[C@@H]1[C@@H](C)[C@@]2(O)[C@@H](C=C(CO)C[C@]3(O)C(=O)C(C)=C[C@@H]23)[C@@H]2C(C)(C)[C@]12OC(C)=O [PMA, Phorbol myristate acetate]
phagocytic activity (THP-1 cells [1]; THP-1, PMA 24 h, 72 h recovery): large increase in phagocytic activity | increase in phagocytic activity relative to control cultures (THP-1 cells [1]; naive THP-1, PMA 25 ng/ml 24 h): 12.94±2.05 fold | IFNγ (THP-1 cells [2]; [4]): 10.0 ± 1.3 pg/mL | IL-1β (THP-1 cells [2]; [4]): 73.4 ± 2.8 pg/mL | IL-8 (THP-1 cells [2]; [4]): 637.2 ± 18.6 pg/mL | IL-12 (THP-1 cells [2]; [4]): 8.0 ± 6.5 pg/mL | MCP-1 (THP-1 cells [2]; [4]): 654.9 ± 60.2 pg/mL | TNF (THP-1 cells [2]; [4]): 110.1 ± 1.7 pg/mL | IFNγ (THP-1 cells [2]; THP-1, PMA 25 ng/ml, Table 3): 24.9 pg/mL | IL-1β (THP-1 cells [2]; THP-1, PMA 25 ng/ml, Table 3): 62.5 pg/mL | IL-6 (THP-1 cells [2]; THP-1, PMA 25 ng/ml, Table 3): 20.3 pg/mL | IL-8 (THP-1 cells [2]; THP-1, PMA 25 ng/ml, Table 3): 712.4 pg/mL | IL-12 (THP-1 cells [2]; THP-1, PMA 25 ng/ml, Table 3): 20.9 pg/mL | MCP-1 (THP-1 cells [2]; THP-1, PMA 25 ng/ml, Table 3): 574.8 pg/mL | TNF (THP-1 cells [2]; THP-1, PMA 25 ng/ml, Table 3): 108.5 pg/mL | CD11b expression, fold change relative to vehicle controls (THP-1 cells [3]; THP-1, 24 h, PMA 25 ng/ml): 0.97 ± 0.02 fold | CD14 expression, fold change relative to vehicle controls (THP-1 cells [3]; THP-1, 24 h, PMA 25 ng/ml): 1.91 ± 0.06 fold | CD16 expression, fold change relative to vehicle controls (THP-1 cells [3]; THP-1, 24 h, PMA 25 ng/ml): 4.77 ± 0.31 fold | CD36 expression, fold change relative to vehicle controls (THP-1 cells [3]; THP-1, 24 h, PMA 25 ng/ml): 1.03 ± 0.01 fold | CD51 expression, fold change relative to vehicle controls (THP-1 cells [3]; THP-1, 24 h, PMA 25 ng/ml): 5.07 ± 0.29 fold | B7-2 (CD86) expression, fold change relative to vehicle controls (THP-1 cells [3]; THP-1, PMA 25 ng/ml): 2.04 ± 0.29 fold | CD11b receptor density (fluorescence intensity), fold change relative to vehicle controls (THP-1 cells [3]; THP-1, PMA 25 ng/ml): 1.97 ± 0.01 fold | CD36 receptor density (fluorescence intensity), fold change relative to vehicle controls (THP-1 cells [3]; THP-1, PMA 25 ng/ml): 4.57 ± 0.03 fold | CD40L expression, fold change relative to vehicle controls (THP-1 cells [3]; THP-1, PMA 25 ng/ml): 1.4 ± 0.10 fold | CD40 counts, fold change relative to vehicle controls (THP-1 cells [3]; THP-1, PMA 25 ng/ml): 0.98 ± 0.01 fold | CD40 intensity, fold change relative to vehicle controls (THP-1 cells [3]; THP-1, PMA 25 ng/ml): 1.31 ± 0.1 fold | HLA (DQ/DR/DP) expression, fold change relative to vehicle controls (THP-1 cells [3]; THP-1, PMA 25 ng/ml): 1.05 ± 0.01 fold | increase of densities of CD11b and CD36 (THP-1 cells [3]; THP-1, PMA 25 ng/ml): 2 to 4 fold
